# Laboratory results as given in patent publication US4571396A, “Antibacterial agents” (Warner-Lambert Company, priority 1985, dated 1986).
# Counter-ions that a name gives are not always drawn. Like-named read-outs stand apart in the source and are kept apart here.
# Assays:
# Experiment in all cases: In vitro antibacterial activity, microtitration dilution method (MIC)
# Format in all cases: cell-based
# [1] = tested on: Enterobacter cloacae MA 2646
# Source text: (§1) Agents & Chemoth., 6, 124 (1974), which is incorporated herein by reference.
# Escherichia coli Vogel = settings: read-out: Minimal Inhibitory Concentration MIC
# Source text: as §1
# [2] = tested on: Klebsiella pneumoniae MGH-2
# Source text: as §1
# Proteus rettgeri M 1771 = settings: Providencia rettgeri
# Source text: as §1
# [3] = tested on: Pseudomonas aeruginosa UI-18
# Source text: as §1
# [4] = tested on: Staphylococcus aureus UC-76
# Source text: as §1
# [5] = tested on: Streptococcus faecalis MGH-2; settings: Enterococcus faecalis
# Source text: as §1
# [6] = tested on: Streptococcus pneumoniae SV-1
# Source text: as §1
# [7] = tested on: Streptococcus pyogenes C-203
# Source text: as §1
# [8] = tested on: Staphylococcus aureus H 228; settings: H228, read-out: Minimal Inhibitory Concentration MIC
# Source text: The compounds of the invention display antibacterial activity when tested by the microtitration dilution method as described in Heifetz, et al, Antimicr. Agents & Chemoth., 6, 124 (1974), which is incorporated herein by reference.
# By use of the above reference method, the followed minimum inhibitory concentration value (MICs in μg/ml) shown in the table were obtained for representative compounds of the invention.
# [9] = MA2646, Enterobacter cloacae MA 2646, in vitro, read-out: Minimal Inhibitory Concentration MIC
# [10] = MGH2, Klebsiella pneumoniae MGH-2, in vitro, read-out: Minimal Inhibitory Concentration MIC
# [11] = M1771, Proteus rettgeri M 1771, in vitro, read-out: Minimal Inhibitory Concentration MIC
# [12] = UI18, Pseudomonas aeruginosa UI-18, in vitro, read-out: Minimal Inhibitory Concentration MIC
# [13] = UC76, Staphylococcus aureus UC-76, in vitro, read-out: Minimal Inhibitory Concentration MIC
# [14] = MGH2, Streptococcus faecalis MGH-2, in vitro, read-out: Minimal Inhibitory Concentration MIC
# [15] = SV1, Streptococcus pneumoniae SV-1, in vitro, read-out: Minimal Inhibitory Concentration MIC
# [16] = C203, Streptococcus pyogenes C-203, in vitro, read-out: Minimal Inhibitory Concentration MIC
SMILES,"MIC [1, 9] [µg/mL]",MIC (Escherichia coli Vogel) [µg/mL],"MIC [2, 10] [µg/mL]",MIC (Proteus rettgeri M 1771; [11]) [µg/mL],"MIC [3, 12] [µg/mL]","MIC [4, 13] [µg/mL]","MIC [5, 14] [µg/mL]","MIC [6, 15] [µg/mL]","MIC [7, 16] [µg/mL]",MIC [8] [µg/mL],"MIC (Proteus rettgeri M 1771; M1771, read-out: Minimal Inhibitory Concentration MIC) [µg/mL]","MIC ([1]; Enterobacter cloacae, MA2646, read-out: Minimal Inhibitory Concentration MIC) [µg/mL]","MIC ([6]; Streptococcus pneumoniae, SV1, read-out: Minimal Inhibitory Concentration MIC) [µg/mL]","MIC ([7]; Streptococcus pyogenes, C203, read-out: Minimal Inhibitory Concentration MIC) [µg/mL]","MIC ([3]; Pseudomonas aeruginosa, UI18, read-out: Minimal Inhibitory Concentration MIC) [µg/mL]","MIC ([5]; MGH2, read-out: Minimal Inhibitory Concentration MIC) [µg/mL]","MIC ([2]; Klebsiella pneumoniae, MGH2, read-out: Minimal Inhibitory Concentration MIC) [µg/mL]","MIC ([4]; Staphylococcus aureus, UC76, read-out: Minimal Inhibitory Concentration MIC) [µg/mL]"
"O=C(O)c1cn(C2CC2)c2nc(N3CC4CCC3CN4)c(F)cc2c1=O (stereo not drawn) [Ex. 6a, 7-(2,5-diazabicyclo[2.2.2]oct-2-yl)-1-cyclopropyl-6-fluoro-1,4-dihydro-4-oxo-1,8-naphthyridine-3-carboxylic acid]",0.1,0.1,0.05,0.4,0.2,0.006,0.4,0.4,0.4,0.05,–,–,–,–,–,–,–,–
"O=C(O)c1cn(C2CC2)c2c(F)c(N3CCN4CCC3C4)c(F)cc2c1=O (stereo not drawn) [Ex. 17, 1-Cyclopropyl-7-(1,4-diazabicyclo[3.2.1]oct-4-yl)-6,8-difluoro-1,4-dihydro-4-oxo-3-quinolinecarboxylic acid]",0.025,0.05,0.05,0.2,0.4,0.025,0.2,0.4,0.1,0.4,–,–,–,–,–,–,–,–
"CCn1cc(C(=O)O)c(=O)c2cc(F)c(N3CCN4CCC3C4)c(F)c21 (stereo not drawn) [Ex. 16, 7-(1,4-Diazabicyclo[3.2.1]oct-4-yl)-1-ethyl-6,8-difluoro-1,4-dihydro-4-oxo-3-quinolinecarboxylic acid]",0.5,–,0.1,0.2,0.4,0.1,0.8,0.8,0.4,0.4,–,–,–,–,–,–,–,–
"O=C(O)c1cn(C2CC2)c2c(F)c(N3CC4CC3CN4)c(F)cc2c1=O (stereo not drawn) [Ex. 7d, 1-cyclopropyl-7-[2,5-diazabicyclo(2.2.1)hept-2-yl]-6,8-difluoro-1,4-dihydro-4-oxo-3-quinolinecarboxylic acid]",0.1,0.05,0.1,–,0.2,0.2,0.8,1.6,0.2,0.8,0.1,–,–,–,–,–,–,–
"O=C(O)c1cn(C2CC2)c2c(F)c(N3CC4CCC3CN4)c(F)cc2c1=O (stereo not drawn) [Ex. 3, 7-(2,5-Diazabicyclo[2.2.2]oct-2-yl)-1-cyclopropyl-6,8-difluoro-1,4-dihydro-4-oxo-3-quinolinecarboxylic acid]",–,0.05,0.1,0.8,0.8,0.025,1.6,–,–,0.4,–,0.05,1.6,0.8,–,–,–,–
"CN1CC2CC1CN2c1nc2c(cc1F)c(=O)c(C(=O)O)cn2C1CC1 (stereo not drawn) [Ex. 10b, 1-cyclopropyl-6-difluoro-1,4-dihydro-7-(5-methyl-2,5-diazabicyclo[2.2.1]hept-2-yl)-4-oxo-1,8-naphthyridine-3-carboxylic acid monohydrochloride]",–,0.05,0.05,0.4,–,0.1,–,0.4,0.4,0.4,–,–,–,–,0.4,0.8,–,–
"CCn1cc(C(=O)O)c(=O)c2cc(F)c(N3CC4CCC3CN4)c(F)c21 (stereo not drawn) [Ex. 2, 7-(2,5-Diazabicyclo[2.2.2]oct-2-yl)-1-ethyl-6,8-difluoro-1,4-dihydro-4-oxo-3-quinolinecarboxylic acid]",0.2,0.1,0.4,0.8,0.4,≤ 0.1,1.6,0.8,0.4,0.4,–,–,–,–,–,–,–,–
O=C(O)c1cn(C2CC2)c2nc(N3CCN4CCC3C4)c(F)cc2c1=O (stereo not drawn) [Ex. 14],0.1,0.05,–,0.4,0.8,0.1,0.8,0.8,0.4,0.8,–,–,–,–,–,–,0.1,–
"CCn1cc(C(=O)O)c(=O)c2cc(F)c(N3[C@@H]4CC[C@H]3C[C@H](N)C4)nc21 [Ex. 20, 7-(3-(Exo-amino)-8-azabicyclo[3.2.1]oct-8-yl]-1-ethyl-6-fluoro-1,4-dihydro-4-oxo-1,8-naphthyridine-3-carboxylic acid, hydrochloride]",0.8,0.4,0.4,0.8,0.8,–,0.8,0.4,0.4,0.4,–,–,–,–,–,–,–,0.2

# More lines, main results first:
"MIC [1, 9] [µg/mL]",MIC (Escherichia coli Vogel) [µg/mL],"MIC [2, 10] [µg/mL]",MIC (Proteus rettgeri M 1771; [11]) [µg/mL],"MIC [3, 12] [µg/mL]","MIC [4, 13] [µg/mL]","MIC [5, 14] [µg/mL]","MIC [6, 15] [µg/mL]","MIC [7, 16] [µg/mL]",MIC [8] [µg/mL],SMILES,"MIC (Proteus rettgeri M 1771; M1771, read-out: Minimal Inhibitory Concentration MIC) [µg/mL]","MIC ([1]; Enterobacter cloacae, MA2646, read-out: Minimal Inhibitory Concentration MIC) [µg/mL]","MIC ([6]; Streptococcus pneumoniae, SV1, read-out: Minimal Inhibitory Concentration MIC) [µg/mL]","MIC ([7]; Streptococcus pyogenes, C203, read-out: Minimal Inhibitory Concentration MIC) [µg/mL]","MIC ([3]; Pseudomonas aeruginosa, UI18, read-out: Minimal Inhibitory Concentration MIC) [µg/mL]","MIC ([5]; MGH2, read-out: Minimal Inhibitory Concentration MIC) [µg/mL]","MIC ([2]; Klebsiella pneumoniae, MGH2, read-out: Minimal Inhibitory Concentration MIC) [µg/mL]","MIC ([4]; Staphylococcus aureus, UC76, read-out: Minimal Inhibitory Concentration MIC) [µg/mL]"
0.1,0.05,0.05,0.2,0.4,0.025,0.4,0.4,0.4,0.1,"CN1CC2CC1CN2c1c(F)cc2c(=O)c(C(=O)O)cn(C3CC3)c2c1F.Cl (stereo not drawn) [Ex. 10c, 1-cyclopropyl-6,8-difluoro-1,4-dihydro-7-(5-methyl-2,5-diazabicyclo[2.2.1]hept-2-yl)-4-oxo-3-quinolinecarboxylic acid monohydrochloride]",–,–,–,–,–,–,–,–
0.05,0.1,0.05,0.2,–,0.2,0.8,0.8,0.2,0.8,"Cl.O=C(O)c1cn(C2CC2)c2nc(N3CC4CC3CN4)c(F)cc2c1=O (stereo not drawn) [Ex. 7c, 1-cyclopropyl-7-[2,5-diazabicyclo(2.2.1)hept-2-yl]-6-fluoro-1,4-dihydro-4-oxo-1,8-naphthyridine-3-carboxylic acid, monohydrochloride]",–,–,–,–,–,–,–,–
< 0.1,0.4,0.4,1.6,1.6,0.2,1.6,1.6,1.6,0.4,"CCn1cc(C(=O)O)c(=O)c2cc(F)c(N3CC4CCC3CN4C)nc21.Cl (stereo not drawn) [Ex. 10a, 1-Ethyl-6-fluoro-7-(5-methyl-2,5-diazabicyclo[2.2.2]oct-2-yl)-1,4-dihydro-4-oxo-1,8-naphthyridine-3-carboxylic acid hydrochloride]",–,–,–,–,–,–,–,–
